pKi: −log10 of the molar value. Structures can show the parent of a compound that is named as a salt.
molecular target: purified human Factor XIa (Homo sapiens (Human), UniProt P03951); test: Factor XIa chromogenic substrate (S-2366) inhibition assay; format: biochemical; settings: substrate S-2366, Table 1
Procedure: The effectiveness of compounds of the present invention as inhibitors of the coagulation factors XIa, VIIa, IXa, Xa, XIIa, plasma kallikrein or thrombin, can be determined using a relevant purified serine protease, respectively, and an appropriate synthetic substrate. The rate of hydrolysis of the chromogenic or fluorogenic substrate by the relevant serine protease was measured both in the absence and presence of compounds of the present invention. […] A decrease in the rate of absorbance or fluorescence change in the presence of inhibitor is indicative of enzyme inhibition. Such methods are known to one skilled in the art. The results of this assay are expressed as the inhibitory constant, Ki. […] JT Baker or Fisher Scientific). […] Values of Ki were determined by allowing the protease to react with the substrate in the presence of the inhibitor. Reactions were allowed to go for periods of 20-180 minutes (depending on the protease) and the velocities (rate of absorbance or fluorescence change versus time) were measured.

Chain of purified human Factor XIa (P03951 388-625): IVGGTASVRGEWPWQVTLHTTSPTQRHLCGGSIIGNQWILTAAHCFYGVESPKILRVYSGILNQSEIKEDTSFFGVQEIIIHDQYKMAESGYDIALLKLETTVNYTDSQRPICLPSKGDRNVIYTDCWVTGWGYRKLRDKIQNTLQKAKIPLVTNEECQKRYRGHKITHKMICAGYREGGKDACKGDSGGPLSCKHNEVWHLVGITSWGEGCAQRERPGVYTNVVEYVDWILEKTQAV
Chain of purified human Factor XIa (P03951 19-387 partner): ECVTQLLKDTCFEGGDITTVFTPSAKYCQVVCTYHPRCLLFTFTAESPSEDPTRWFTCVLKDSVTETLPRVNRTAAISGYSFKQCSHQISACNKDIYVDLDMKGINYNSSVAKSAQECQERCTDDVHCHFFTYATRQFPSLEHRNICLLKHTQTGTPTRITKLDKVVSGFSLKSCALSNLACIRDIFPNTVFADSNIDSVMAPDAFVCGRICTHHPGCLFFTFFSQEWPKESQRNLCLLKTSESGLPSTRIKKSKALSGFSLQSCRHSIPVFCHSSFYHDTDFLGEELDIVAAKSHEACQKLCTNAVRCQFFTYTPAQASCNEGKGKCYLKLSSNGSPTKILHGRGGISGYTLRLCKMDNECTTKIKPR

SMILES	pKi
COC(=O)Nc1ccc(NC(=O)C2c3cccc(N4CCNCC4)c3CCN2C(=O)/C=C/c2c(-n3cnnn3)ccc(Cl)c2F)cc1 (stereo not shown) [Example 4]	7.99
CC(C)(C)OC(=O)c1ccc(NC(=O)C2c3cccc(N4CCNCC4)c3CCN2C(=O)/C=C/c2c(-n3cnnn3)ccc(Cl)c2F)cc1 (stereo not shown) [Example 7]	7.30
O=C(O)c1ccc(NC(=O)C2c3cccc(N4CCNCC4)c3CCN2C(=O)C=Cc2c(-n3cnnn3)ccc(Cl)c2F)cc1 (stereo not shown) [Example 13]	> 8.30
CCOC(=O)c1ccc(NC(=O)C2c3cccc(N4CCC(N5CCCC5)CC4)c3CCN2C(=O)C=Cc2c(-n3cnnn3)ccc(Cl)c2F)cc1 (stereo not shown) [Example 94]	> 8.30

Continued, values first:

pKi	SMILES
7.69	CCOC(=O)c1ccc(NC(=O)C2c3cccc(N4CCCCC4=O)c3CCN2C(=O)/C=C/c2c(-n3cnnn3)ccc(Cl)c2F)cc1 (racemic) [compound 43]
6.50	O=C(Nc1ccc(F)cc1)C1c2cccc(N3CCC(N4CCCC4)CC3)c2CCN1C(=O)C=Cc1c(-n2cnnn2)ccc(Cl)c1F (stereo not shown) [Example 90]
6.20	COC(=O)Nc1ccc(NC(=O)C2c3cccc(N4CCC(N5CCCC5)CC4)c3CCN2C(=O)C=Cc2c(-n3cnnn3)ccc(Cl)c2F)cc1 (stereo not shown) [Example 98]

same assay, conditions: substrate S-2366, activity ranges, Table A

SMILES	pKi
CC(=O)c1ccc(Cl)c(F)c1/C=C/C(=O)N1CCc2c(cccc2N2CCCCC2=O)C1C(=O)Nc1ccc(C(=O)O)cc1 (racemic) [compound 38]	8.00 to 8.30
O=C(Nc1ccc(F)cc1)C1c2cccc(N3CCNCC3)c2CCN1C(=O)/C=C/c1cc(Cl)ccc1-n1cnnn1 (stereo not shown) [Example 2]	6.30 to 7.00
O=C(Nc1ccc(F)cc1)C1c2cccc(N3CCNCC3)c2CCN1C(=O)/C=C/c1c(-n2cnnn2)ccc(Cl)c1F (stereo not shown) [Example 5]	8.00 to 8.30
N#Cc1ccc(NC(=O)C2c3cccc(N4CCNCC4)c3CCN2C(=O)/C=C/c2c(-n3cnnn3)ccc(Cl)c2F)cc1 (stereo not shown) [Example 6]	8.00 to 8.30
CC(C)(C)OC(=O)N1CCN(c2cccc3c2CCN(C(=O)/C=C/c2c(-n4cnnn4)ccc(Cl)c2F)C3C(=O)Nc2ccc3cnn(C(=O)OC(C)(C)C)c3c2)CC1 (stereo not shown) [Example 10]	8.00 to 8.30
O=C(O)c1ccc(NC(=O)C2c3cccc(N4CCNCC4)c3CCN2C(=O)C=Cc2c(-n3cnnn3)ccc(Cl)c2F)cc1 (stereo not shown) [Example 12]	8.00 to 8.30
CN1CCN(c2cccc3c2CCN(C(=O)/C=C/c2c(-n4cnnn4)ccc(Cl)c2F)C3C(=O)Nc2ccc(C(=O)O)cc2)CC1 (stereo not shown) [Example 18]	> 8.30
CN1CCN(c2cccc3c2CCN(C(=O)/C=C/c2c(-n4cnnn4)ccc(Cl)c2F)C3C(=O)Nc2ccc(C#N)cc2)CC1 (stereo not shown) [Example 20]	8.00 to 8.30
CCOC(=O)CCNC(=O)N1CCN(c2cccc3c2CCN(C(=O)/C=C/c2cc(Cl)ccc2-n2cnnn2)C3C(=O)Nc2ccc(C(=O)O)cc2)CC1 (stereo not shown) [Example 21]	> 8.30
CCOC(=O)CCNC(=O)N1CCN(c2cccc3c2CCN(C(=O)/C=C/c2cc(Cl)ccc2-n2cnnn2)C3C(=O)Nc2ccc(NC(=O)OC)cc2)CC1 (stereo not shown) [Example 23]	8.00 to 8.30
COC(=O)N1CCN(c2cccc3c2CCN(C(=O)/C=C/c2c(-n4cnnn4)ccc(Cl)c2F)C3C(=O)Nc2ccc(F)cc2)CC1 (stereo not shown) [Example 25]	8.00 to 8.30
COC(=O)N1CCN(c2cccc3c2CCN(C(=O)/C=C/c2c(-n4cnnn4)ccc(Cl)c2F)C3C(=O)Nc2ccc(C#N)cc2)CC1 (stereo not shown) [Example 26]	8.00 to 8.30
CC1(C)Cc2c(cccc2N2CCNCC2)C(C(=O)Nc2ccc(C(=O)O)cc2)N1C(=O)/C=C/c1c(-n2cnnn2)ccc(Cl)c1F (stereo not shown) [Example 78, (E)-4-(2-(3-(3-chloro-2-fluoro-6-(1H-tetrazol-1-yl)phenyl)acryloyl)-3,3-dimethyl-5-(piperazin-1-yl)-1,2,3,4-tetrahydroisoquinoline-1-carboxamido)benzoic acid, bis-TFA Salt]	> 8.30
O=C(Nc1ccc(F)cc1)C1c2cccc(N3CCC(N4CCCC4)CC3)c2CCN1C(=O)C=Cc1c(-n2cnnn2)ccc(Cl)c1F (stereo not shown) [Example 86]	> 8.30
O=C(O)c1ccc(NC(=O)C2c3cccc(N4CCC(N5CCCC5)CC4)c3CCN2C(=O)C=Cc2c(-n3cnnn3)ccc(Cl)c2F)cc1 (stereo not shown) [Example 87]	> 8.30
CCOC(=O)c1ccc(NC(=O)C2c3cccc(N4CCC(N5CCCC5)CC4)c3CCN2C(=O)C=Cc2c(-n3cnnn3)ccc(Cl)c2F)cc1 (stereo not shown) [Example 93]	8.00 to 8.30
CN(C)C(=O)C1CCN(c2cccc3c2CCN(C(=O)C=Cc2c(-n4cnnn4)ccc(Cl)c2F)C3C(=O)Nc2ccc(C(=O)O)cc2)CC1 (stereo not shown) [Example 101]	> 8.30
O=C(Nc1ccc(Cl)cc1)C1c2cccc(N3CCC(N4CCCC4)CC3)c2CCN1C(=O)C=Cc1c(-n2cnnn2)ccc(Cl)c1F (stereo not shown) [Example 112]	> 8.30

The next lines start with the values.

pKi	SMILES
> 8.30	CN(C)CCN1CCN(c2cccc3c2CCN(C(=O)/C=C/c2c(-n4cnnn4)ccc(Cl)c2F)C3C(=O)Nc2ccc(C(=O)O)cc2)CCC1=O (racemic) [Example 263]
> 8.30	CN1CCN(c2cccc3c2CCN(C(=O)/C=C/c2c(-n4cnnn4)ccc(Cl)c2F)C3C(=O)Nc2ccc(C(=O)O)cc2)CCC1=O (racemic) [Example 264]
> 8.30	COCCOC1CCN(c2cccc3c2CCN(C(=O)/C=C/c2c(C(C)=O)ccc(Cl)c2F)C3C(=O)Nc2ccc(C(=O)O)cc2)CC1 (racemic) [Example 269]
> 8.30	O=C(O)c1ccc(NC(=O)C2c3cccc(N4CCNCC4)c3CCN2C(=O)/C=C/c2c(-n3cnnn3)ccc(Cl)c2F)cc1 (stereo not shown) [Example 3]
8.00 to 8.30	O=C(Nc1ccccc1)C1c2cccc(N3CCNCC3)c2CCN1C(=O)/C=C/c1c(-n2cnnn2)ccc(Cl)c1F (stereo not shown) [Example 8]
8.00 to 8.30	O=C(Nc1ccc2cnn(C(=O)OCc3ccccc3)c2c1)C1c2cccc(N3CCNCC3)c2CCN1C(=O)/C=C/c1c(-n2cnnn2)ccc(Cl)c1F (stereo not shown) [Example 9]
> 8.30	O=C(Nc1ccc2cn[nH]c2c1)C1c2cccc(N3CCNCC3)c2CCN1C(=O)/C=C/c1c(-n2cnnn2)ccc(Cl)c1F (stereo not shown) [Example 11]
> 8.30	CN1CCN(c2cccc3c2CCN(C(=O)/C=C/c2c(-n4cnnn4)ccc(Cl)c2F)C3C(=O)Nc2ccc3cn[nH]c3c2)CC1 (stereo not shown) [Example 27]
6.30 to 7.00	NCc1ccc(Cl)cc1/C=C/C(=O)N1CCc2c(cccc2N2CCNCC2)C1C(=O)Nc1ccc(C(=O)O)cc1 (stereo not shown) [Example 32, (E)-4-(2-(3-(2-(Aminomethyl)-5-chlorophenyl)acryloyl)-5-(piperazin-1-yl)-1,2,3,4-tetrahydroisoquinoline-1-carboxamido)benzoic acid, tri TFA Salt]
6.30 to 7.00	CC(C)(C)OC(=O)c1ccc(NC(=O)[C@@H]2c3cccc(N4CCOCC4=O)c3CCN2C(=O)/C=C/c2c(-n3cnnn3)ccc(Cl)c2F)cc1 [Example 50]
8.00 to 8.30	CN1CCN(c2cccc3c2CCN(C(=O)/C=C/c2c(-n4cnnn4)ccc(Cl)c2F)C3C(=O)Nc2ccc(C(=O)OC(C)(C)C)cc2)C(=O)C1 (stereo not shown) [Example 57, (E)-tert-butyl 4-(2-(3-(3-chloro-2-fluoro-6-(1H-tetrazol-1-yl)phenyl)acryloyl)-5-(4-methyl-2-oxopiperazin-1-yl)-1,2,3,4-tetrahydroisoquinoline-1-carboxamido)benzoate]
8.00 to 8.30	O=C(O)c1ccc(NC(=O)C2c3cccc(N4CCNCC4)c3CCN2C(=O)/C=C/c2cc(Cl)c(F)cc2-n2cnnn2)cc1 (stereo not shown) [Example 65, (E)-4-(2-(3-(5-chloro-4-fluoro-2-(1H-tetrazol-1-yl)phenyl)acryloyl)-5-(piperazin-1-yl)-1,2,3,4-tetrahydroisoquinoline-1-carboxamido)benzoic acid, bis TFA Salt]
8.00 to 8.30	NC(=O)c1ccc(NC(=O)C2c3cccc(N4CCNCC4)c3CCN2C(=O)/C=C/c2cc(Cl)c(F)cc2-n2cnnn2)cc1 (stereo not shown) [Example 66, (E)-N-(4-carbamoylphenyl)-2-(3-(5-chloro-4-fluoro-2-(1H-tetrazol-1-yl)phenyl)acryloyl)-5-(piperazin-1-yl)-1,2,3,4-tetrahydroisoquinoline-1-carboxamide, bis-TFA Salt]
> 8.30	CC(=O)c1ccc(Cl)c(F)c1/C=C/C(=O)N1CCc2c(cccc2N2CCN(C)CC2)C1C(=O)Nc1ccc(C(=O)O)cc1 (stereo not shown) [Example 79, (E)-4-(2-(3-(6-acetyl-3-chloro-2-fluorophenyl)acryloyl)-5-(4-methylpiperazin-1-yl)-1,2,3,4-tetrahydroisoquinoline-1-carboxamido)benzoic acid, bis-TFA Salt]
> 8.30	O=C(O)c1ccc(NC(=O)C2c3cccc(N4CCC(N5CCCC5)CC4)c3CCN2C(=O)/C=C/c2c(-n3cnnn3)ccc(Cl)c2F)cc1 (stereo not shown) [Example 80, (E)-4-(2-(3-(3-Chloro-2-fluoro-6-(1H-tetrazol-1-yl)phenyl)acryloyl)-5-(4-(pyrrolidin-1-yl)piperidin-1-yl)-1,2,3,4-tetrahydroisoquinoline-1-carboxamido)benzoic acid, bis TFA Salt]
8.00 to 8.30	O=C(O)c1ccc(NC(=O)C2c3cccc(N4CCC(N5CCCC5)CC4)c3CCN2C(=O)C=Cc2c(-n3cnnn3)ccc(Cl)c2F)cc1 (stereo not shown) [Example 88]
> 8.30	COC(=O)Nc1ccc(NC(=O)C2c3cccc(N4CCC(N5CCCC5)CC4)c3CCN2C(=O)C=Cc2c(-n3cnnn3)ccc(Cl)c2F)cc1 (stereo not shown) [Example 99]
8.00 to 8.30	CCOC(=O)c1ccc(NC(=O)C2c3cccc(N4CCC5(CCN(C)C5=O)CC4)c3CCN2C(=O)C=Cc2c(-n3cnnn3)ccc(Cl)c2F)cc1 (stereo not shown) [Example 110]
5.30 to 6.30	O=C(Nc1ccc(Cl)cc1)C1c2cccc(N3CCC(N4CCCC4)CC3)c2CCN1C(=O)C=Cc1c(-n2cnnn2)ccc(Cl)c1F (stereo not shown) [Example 111]
6.30 to 7.00	CCCCOC(=O)c1ccc(NC(=O)C2c3cccc(N4CCC(N5CCCC5)CC4)c3CCN2C(=O)C=Cc2c(-n3cnnn3)ccc(Cl)c2F)cc1 (stereo not shown) [Example 113]
> 8.30	CCCCOC(=O)c1ccc(NC(=O)C2c3cccc(N4CCC(N5CCCC5)CC4)c3CCN2C(=O)C=Cc2c(-n3cnnn3)ccc(Cl)c2F)cc1 (stereo not shown) [Example 114]
